Data published in patent publication US20130158075A1, “HETEROCYCLIC COMPOUNDS AS DGAT1 INHIBITORS” (PIRAMAL ENTERPRISES LIMITED, priority 2010, published 2013).

Molecular target: T1, hDGAT1 (Homo sapiens, UniProt O75907)
T1 construct: made in house; host or cells: Sf9 insect cells (baculovirus); microsomal fraction
T1 sequence (O75907 1-488): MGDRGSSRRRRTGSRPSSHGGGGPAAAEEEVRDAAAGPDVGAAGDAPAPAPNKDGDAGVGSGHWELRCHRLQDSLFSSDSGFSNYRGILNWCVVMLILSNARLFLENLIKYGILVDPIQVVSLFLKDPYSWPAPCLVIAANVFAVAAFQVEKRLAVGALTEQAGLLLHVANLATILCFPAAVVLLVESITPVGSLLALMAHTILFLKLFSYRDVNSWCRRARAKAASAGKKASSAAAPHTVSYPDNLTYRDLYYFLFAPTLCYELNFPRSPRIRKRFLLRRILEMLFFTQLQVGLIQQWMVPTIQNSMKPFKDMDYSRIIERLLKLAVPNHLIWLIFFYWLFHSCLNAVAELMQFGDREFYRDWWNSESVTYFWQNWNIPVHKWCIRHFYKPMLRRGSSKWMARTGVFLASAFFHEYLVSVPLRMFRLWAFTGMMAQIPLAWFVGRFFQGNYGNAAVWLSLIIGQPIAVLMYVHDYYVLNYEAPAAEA
Assay: In-vitro DGAT1 assay with hDGAT1 microsomes from Sf9 cells (14C oleoyl CoA, scintillation counting)
Format: biochemical
Conditions: for Percentage inhibition of hDGAT1: at 1 μM; for inhibition at 1 µM: read-out: Percentage inhibition of hDGAT1
Method: Sf9 cells were grown in T25 flasks containing Graces's Insect media with 10% FBS with antibiotic (100 units/mL penicillin, 100 μg/mL streptomycin sulphate, 0.25 μg/mL Amptotericin B as Fungizone) grown in a 27° C. incubator.
hDGAT10RF expression clone (RZPDo839C09146 in pDEST vector) was obtained from RZPD, German Science Center for Genomes research, Germany. hDGAT1 bacmid DNA was obtained by transformation of the hDGAT1 expression clone into DH10Bac E. coli competent cells. Approximately 1 μg of hDGAT1 bacmid DNA was infected into Sf9 cells with Cellfectin (Invitrogen) reagent. Following infection, Sf9 cells were incubated at 27° C. for 30 min. Five hours after infection, the media was replaced with growth media containing antibiotics (100 units/mL penicillin, 100 μg/mL streptomycin sulphate, 0.25 μg/mL Amptotericin B as Fungizone) and incubated at 27° C. for 72 h. The supernatant containing the virus was centrifuged at 1500×g for 5 min, passed through 0.22 μm filter, and subsequently stored at 4° C. The virus was further amplified three more times by re-infection of Sf9 cells and the viral titer was determined by plaque assay.
Sf9 cells were seeded in spinner flasks on day 0 at a cell density of 1×10^6 and infected on day 1 with hDGAT1 baculovirus at a multiplicity of infection (MOI) of 5 and a cell density of 2×10^6. On day 3 (or 66-72 h), cells were harvested and centrifuged at 2500×g for 10 min. Pellet was resuspended in lysis buffer (100 mM sucrose, 50 mM KCl, 40 mM KH2PO4, 30 mM EDTA, pH 7.2) and passed through 21-gauge needle approximately 10 times. The mixture was centrifuged at 12,000 rpm in a Sigma 12158-H rotor at 4° C. for 30 min. The supernatant was subjected to centrifugation at 35,000 rpm in a Beckman Ti-45 rotor at 4° C. for 1 h. The resultant pellet containing the microsomes wasere resuspended overnight in 1 mL of lysis buffer and total protein concentration was estimated using Bradford Reagent. Microsomes were aliquoted and stored at −80° C.
Frozen aliquots of hDGAT1 containing microsomes were thawed (5-10 mg/mL total protein) on ice and diluted to a working stock of 1 mg/mL with DGAT Assay Buffer (DAB). The DGAT reaction assay was performed by following the procedure described in U.S. Pat. No. 6,607,893 with some modifications that are described below.
1 mL stock solution of DGAT1 substrate mixture contains 5.6 μL of ^14C oleoyl CoA (16.8 nCi) and […] of 1,2-dioleoyl-sn-glycerol (1228.5 μM) 1,2-dioleoyl-sn-glycerol stock (19.5 mM) was prepared by dissolving 25 mg of 1,2-dioleoyl-sn-glycerol (Sigma, US) in 2060 μL of acetone.
The assay was performed in duplicates in a reaction volume of 100 μL.
The reaction was started by the addition of 2.5 μL of 1 mg/mL of microsomes (iv) to the mixture of (i), (ii) and (iii), and incubated at 37° C. for 10 min. The reaction was stopped by the addition of 300 μL of Alkaline Ethanol Stop Solution Mix [AESSM; 12.5% of 100% non-denatured ethanol, 10% deionized water, 2.5% 1N NaOH, 75% stop solution (78.4% isopropanol, 19.6% n-heptane, 2% deionized water)] followed by addition of 600 μL of n-heptane. The mixture was vortexed and the triglycerides formed were extracted into the organic heptane phase. 250 μL of the heptane phase was added into 4 mL scintillation cocktail (66.72% toluene, 33.3% TritonX-100, 0.5% PPO, 0.02% POPOP) and counted on a liquid scintillation counter for 1 min. Data was collected and plotted as a function of concentration in nM versus percentage inhibition of hDGAT1 by the compounds of present invention.

Compound	Percentage inhibition of hDGAT1	inhibition at 1 µM
3-(5-(4-(3-(2-Chlorophenyl)ureido)phenyl)thiazol-2-yl)-2,2-diethylpropanoic acid [Example 30]	++ (>50 % Inhibition)	
3-(5-(4-(4-Tert-butyl benzamido)phenyl)oxazol-2-yl)-2,2-dimethylpropanoic acid [Example 126]	+ (20-50% Inhibition)	
4-(3-(4-(3-(2,4-Difluorophenyl)ureido)phenyl)-1,2,4-oxadiazol-5-yl)butanoic acid [Example 332]	+ (20-50% Inhibition)	
4-(5-(4-(3-(2-Fluorophenyl)-2-methylguanidino)phenyl)thiazol-2-yl)-2,2-dimethyl butanoic acid [Example 271]	+ (20-50% Inhibition)	
O=C(O)CCc1ncc(-c2ccc(NC(=O)Nc3cccc(C(F)(F)F)c3)cc2)s1 [Example 7, 3-(5-(4-(3-(3-(Trifluoromethyl)phenyl)ureido)phenyl)thiazol-2-yl)propanoic acid]		> 50%
O=C(O)CCc1ncc(-c2ccc(NC(=O)Nc3ccccc3Cl)cc2)s1 [Example 9, 3-(5-(4-(3-(2-Chlorophenyl)ureido)phenyl)thiazol-2-yl)propanoic acid]		> 50%
O=C(O)CCc1ncc(-c2ccc(NC(=O)NC3CCCCC3)cc2)s1 [Example 11, 3-(5-(4-(3-Cyclohexylureido)phenyl)thiazol-2-yl)propanoic acid]		> 50%
O=C(O)CCc1ncc(-c2ccc(NC(=O)Nc3ccc(Cl)cc3Oc3ccccc3)cc2)s1 [Example 13, 3-(5-(4-(3-(4-Chloro-2-phenoxyphenyl)ureido)phenyl)thiazol-2-yl)propanoic acid]		> 50%
CC(C)(C)c1ccc(C(=O)Nc2ccc(-c3cnc(CCC(=O)O)s3)cc2)cc1 [Example 15, 3-(5-(4-(4-Tert-butylbenzamido)phenyl)thiazol-2-yl)propanoic acid]		> 50%
CCCCCc1ccc(C(=O)Nc2ccc(-c3cnc(CCC(=O)O)s3)cc2)cc1 [Example 17, 3-(5-(4-(4-Pentylbenzamido)phenyl)thiazol-2-yl)propanoic acid]		> 50%
CCOc1cc(COC)cc(C(=O)Nc2ccc(-c3cnc(CCC(=O)O)s3)cc2)c1 [Example 19, 3-(5-(4-(3-Ethoxy-5-(methoxymethyl)benzamido)phenyl)thiazol-2-yl)propanoic acid]		> 50%
O=C(O)CCc1ncc(-c2ccc(NC(=O)c3ccc4ccccc4c3)cc2)s1 [Example 21, 3-(5-(4-(2-Naphthamido)phenyl)thiazol-2-yl)propanoic acid]		> 50%
CCCCOc1ccc(C(=O)Nc2ccc(-c3cnc(CCC(=O)O)s3)cc2)cc1 [Example 23, 3-(5-(4-(4-Butoxybenzamido)phenyl)thiazol-2-yl)propanoic acid]		> 50%
COc1ccc(S(=O)(=O)Nc2ccc(-c3cnc(CCC(=O)O)s3)cc2)c(OC)c1 [Example 25, 3-(5-(4-(2,4-Dimethoxyphenylsulfonamido)phenyl)thiazol-2-yl)propanoic acid]		20 to 50%
CC(C)(Cc1ncc(-c2ccc(NC(=O)Nc3ccc(C(F)(F)F)cc3)cc2)s1)C(=O)O [Example 32, 2,2-Dimethyl-3-(5-(4-(3-(4-(trifluoromethyl)phenyl)ureido)phenyl)thiazol-2-yl)propanoic acid]		> 50%
CC(C)(Cc1ncc(-c2ccc(NC(=O)Nc3ccc(F)cc3)cc2)s1)C(=O)O [Example 34, 3-(5-(4-(3-(4-Fluorophenyl)ureido)phenyl)thiazol-2-yl)-2,2-dimethylpropanoic acid]		20 to 50%
COc1ccc(NC(=O)Nc2ccc(-c3cnc(CC(C)(C)C(=O)O)s3)cc2)cc1 [Example 36, 3-(5-(4-(3-(4-Methoxyphenyl)ureido)phenyl)thiazol-2-yl)-2,2-dimethyl propanoic acid]		> 50%
CC(C)(Cc1ncc(-c2ccc(NC(=O)NC3CCCCC3)cc2)s1)C(=O)O [Example 38, 3-(5-(4-(3-Cyclohexylureido)phenyl)thiazol-2-yl)-2,2-dimethylpropanoic acid]		20 to 50%
CC(C)(Cc1ncc(-c2ccc(NC(=O)Nc3ccc(Cl)cc3Oc3ccccc3)cc2)s1)C(=O)O [Example 40, 3-(5-(4-(3-(4-Chloro-2-phenoxyphenyl)ureido)phenyl)thiazol-2-yl)-2,2-dimethylpropanoic acid]		> 50%
CC(C)(Cc1ncc(-c2ccc(NC(=O)c3ccc(C(C)(C)C)cc3)cc2)s1)C(=O)O [Example 42, 3-(5-(4-(4-tert-Butylbenzamido)phenyl)thiazol-2-yl)-2,2-dimethylpropanoic acid]		20 to 50%
CC(C)(Cc1ncc(-c2ccc(NC(=O)c3ccc(-c4ccccc4)cc3)cc2)s1)C(=O)O [Example 44, 3-(5-(4-Biphenyl-4-ylcarboxamidophenyl)thiazol-2-yl)-2,2-dimethylpropanoic acid]	+ (20-50% Inhibition)	
O=C(O)CCCc1ncc(-c2ccc(NC(=O)Nc3cccc(C(F)(F)F)c3)cc2)s1 [Example 49, 4-(5-(4-(3-(3-(Trifluoromethyl)phenyl)ureido)phenyl)thiazol-2-yl)butanoic acid]		> 50%
O=C(O)CCCc1ncc(-c2ccc(NC(=O)Nc3ccccc3Cl)cc2)s1 [Example 51, 4-(5-(4-(3-(2-Chlorophenyl)ureido)phenyl)thiazol-2-yl)butanoic acid]		> 50%
Cc1ccc(NC(=O)Nc2ccc(-c3cnc(CCCC(=O)O)s3)cc2)cc1C [Example 53, 4-(5-(4-(3-(3,4-Dimethylphenyl)ureido)phenyl)thiazol-2-yl)butanoic acid]		> 50%
O=C(O)CCCc1ncc(-c2ccc(NC(=O)Nc3ccc(Cl)cc3Oc3ccccc3)cc2)s1 [Example 55, 4-(5-(4-(3-(4-Chloro-2-phenoxyphenyl)ureido)phenyl)thiazol-2-yl)butanoic acid]		> 50%
CC(C)(C)c1ccc(C(=O)Nc2ccc(-c3cnc(CCCC(=O)O)s3)cc2)cc1 [Example 57, 4-(5-(4-(4-Tert-butylbenzamido)phenyl)thiazol-2-yl)butanoic acid]		20 to 50%
CCCCCc1ccc(C(=O)Nc2ccc(-c3cnc(CCCC(=O)O)s3)cc2)cc1 [Example 59, 4-(5-(4-(4-Pentylbenzamido)phenyl)thiazol-2-yl)butanoic acid]		> 50%
O=C(O)CCCc1ncc(-c2ccc(NC(=O)c3ccc(-c4ccccc4)cc3)cc2)s1 [Example 61, 4-(5-(4-Biphenyl-4-ylcarboxamidophenyl)thiazol-2-yl)butanoic acid]	++ (>50 % Inhibition)	
COc1ccc(S(=O)(=O)Nc2ccc(-c3cnc(CCCC(=O)O)s3)cc2)c(OC)c1 [Example 63, 4-(5-(4-(2,4-Dimethoxyphenylsulfonamido)phenyl)thiazol-2-yl)butanoic acid]		20 to 50%
